Numbered stars: 1 amine (or outer) side, 2 acyl side, 3 side chain; on linkers, the order of the positions; unused ones are H or OH. Square brackets hold non-standard residues; d marks the D form. Side chains are listed from the residue outwards. Peptide text beside a SMILES is read from it. * marks the point of attachment. γGlu = O=C(O)[C@H](CCC(=O)[*:2])N[*:1]; Palmitoyl = CCCCCCCCCCCCCCCC(=O)*; Aib = CC(C)(N)C(=O)O
Key:
Assay type in all cases: cell-based
glucagon receptor = target: T1, glucagon receptor (Homo sapiens, UniProt P47871); assay: cAMP induction, firefly luciferase reporter assay in HEK293 cells co-transfected with the glucagon receptor; settings: HEK293 cells, cAMP-responsive luciferase reporter, 5 hours incubation
T1 construct: expressed in transfected cells; host or cells: HEK293
T1 sequence (P47871 26-477, species assumed): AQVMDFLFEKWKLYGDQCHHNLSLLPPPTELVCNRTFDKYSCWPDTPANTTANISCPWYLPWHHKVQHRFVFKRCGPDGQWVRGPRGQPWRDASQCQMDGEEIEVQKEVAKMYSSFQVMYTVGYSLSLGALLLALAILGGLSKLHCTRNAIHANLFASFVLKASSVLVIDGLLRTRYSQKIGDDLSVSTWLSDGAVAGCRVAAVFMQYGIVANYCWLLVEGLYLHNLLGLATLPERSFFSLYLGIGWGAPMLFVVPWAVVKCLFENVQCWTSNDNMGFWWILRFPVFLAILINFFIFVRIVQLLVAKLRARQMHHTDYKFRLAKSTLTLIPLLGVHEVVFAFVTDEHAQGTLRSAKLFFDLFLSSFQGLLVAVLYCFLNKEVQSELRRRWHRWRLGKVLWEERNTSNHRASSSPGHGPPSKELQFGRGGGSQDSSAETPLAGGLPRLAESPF
Protocol: (§1) The ability of each peptide to induce cAMP was measured in a firefly luciferase-based reporter assay. […] At the end of the incubation, 100 μL of LucLite luminescence substrate reagent (Perkin Elmer, Wellesley, Mass.) were added to each well. […] In some instances, the in vitro agonist activity at the GIP receptor was also tested.

GLP-1 receptor = target: T2, GLP-1 receptor (Homo sapiens, UniProt P43220); assay: cAMP induction, firefly luciferase reporter assay in HEK293 cells co-transfected with the GLP-1 receptor; settings: HEK293 cells, cAMP-responsive luciferase reporter, 5 hours incubation
T2 construct: expressed in transfected cells; host or cells: HEK293
T2 sequence (P43220 24-463): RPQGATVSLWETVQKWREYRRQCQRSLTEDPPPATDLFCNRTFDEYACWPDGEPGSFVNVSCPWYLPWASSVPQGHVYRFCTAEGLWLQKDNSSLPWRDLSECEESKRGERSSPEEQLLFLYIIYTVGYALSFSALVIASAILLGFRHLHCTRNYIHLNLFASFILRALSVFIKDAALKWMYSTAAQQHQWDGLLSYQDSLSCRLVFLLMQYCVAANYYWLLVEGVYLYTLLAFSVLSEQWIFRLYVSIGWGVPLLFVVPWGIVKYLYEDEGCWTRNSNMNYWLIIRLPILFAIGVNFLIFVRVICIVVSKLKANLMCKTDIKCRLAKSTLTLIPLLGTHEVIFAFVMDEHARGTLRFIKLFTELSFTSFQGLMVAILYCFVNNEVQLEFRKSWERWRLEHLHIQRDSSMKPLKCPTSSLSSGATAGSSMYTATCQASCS
Protocol: as §1

GIP receptor = target: T3, GIP receptor (Homo sapiens, UniProt P48546); assay: in vitro agonist activity at the GIP receptor (cAMP luciferase reporter, HEK293 cells); settings: in vitro agonist activity; read-out: EC50 (nM) at GIP receptor
T3 construct: expressed in transfected cells; host or cells: HEK293
T3 sequence (P48546 22-466): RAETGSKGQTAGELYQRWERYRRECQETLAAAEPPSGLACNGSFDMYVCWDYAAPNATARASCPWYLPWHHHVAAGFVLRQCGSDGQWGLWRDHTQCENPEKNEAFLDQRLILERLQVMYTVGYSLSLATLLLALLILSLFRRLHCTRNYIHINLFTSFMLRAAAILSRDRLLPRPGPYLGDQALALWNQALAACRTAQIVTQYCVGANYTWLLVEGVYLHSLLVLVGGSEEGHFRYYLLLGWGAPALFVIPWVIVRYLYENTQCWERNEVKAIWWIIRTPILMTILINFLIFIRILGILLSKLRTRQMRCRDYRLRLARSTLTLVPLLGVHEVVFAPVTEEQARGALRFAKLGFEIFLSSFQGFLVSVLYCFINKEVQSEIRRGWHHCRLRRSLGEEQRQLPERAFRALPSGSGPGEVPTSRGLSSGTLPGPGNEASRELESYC
Protocol: as §1, with “It is understood that a lower EC50 indicates higher activity or potency at the receptor. […] The” for “The”

SMILES: CCCCCCCCCCCCCCCC(=O)N[C@@H](CCC(=O)N[C@@H](CCC(=O)NCCCC[C@H](NC(=O)[C@H](CC(=O)O)NC(=O)[C@H](CO)NC(=O)[C@@H](NC(=O)[C@H](Cc1ccccc1)NC(=O)[C@@H](NC(=O)CNC(=O)[C@H](CCC(N)=O)NC(=O)C(C)(C)NC(=O)[C@@H](N)Cc1c[nH]cn1)[C@@H](C)O)[C@@H](C)O)C(=O)N[C@@H](CO)C(=O)N[C@@H](CCCCN)C(=O)N[C@@H](Cc1ccc(O)cc1)C(=O)N[C@@H](CC(C)C)C(=O)N[C@@H](CC(=O)O)C(=O)NC(C)(C)C(=O)N[C@@H](CCCNC(=N)N)C(=O)N[C@@H](C)C(=O)N[C@@H](C)C(=O)N[C@@H](CCC(N)=O)C(=O)N[C@@H](CC(=O)O)C(=O)N[C@@H](Cc1ccccc1)C(=O)N[C@H](C(=O)N[C@@H](CCC(N)=O)C(=O)N[C@@H](Cc1c[nH]c2ccccc12)C(=O)N[C@@H](CC(C)C)C(=O)N[C@@H](CCSC)C(=O)N[C@@H](CCCCN)C(=O)N[C@H](C(=O)N[C@@H](CCCCN)C(=O)N[C@H](CCC(=O)O)C(=O)O)[C@@H](C)O)C(C)C)C(=O)O)C(=O)O [compound 37] (H-H[Aib]QGTFTSDK([γGlu-γGlu-Palmitoyl])SKYLD[Aib]RAAQDFVQWLMKTK[dE]-OH; N-terminus assumed)
- EC50 (glucagon receptor): 0.018 nM
- EC50 (GLP-1 receptor): 0.016 nM
- EC50 (GIP receptor): 3.3 nM

SMILES: CCCCCCCCCCCCCCCC(=O)NCCCC[C@H](NC(=O)[C@H](CC(=O)O)NC(=O)[C@H](CO)NC(=O)[C@@H](NC(=O)[C@H](Cc1ccccc1)NC(=O)[C@@H](NC(=O)CNC(=O)[C@H](CCC(N)=O)NC(=O)C(C)(C)NC(=O)[C@@H](N)Cc1c[nH]cn1)[C@@H](C)O)[C@@H](C)O)C(=O)N[C@@H](CO)C(=O)N[C@@H](CCCCN)C(=O)N[C@@H](Cc1ccc(O)cc1)C(=O)N[C@@H](CC(C)C)C(=O)N[C@@H](CC(=O)O)C(=O)N[C@@H](CCC(=O)O)C(=O)N[C@@H](CCCNC(=N)N)C(=O)N[C@@H](CCCNC(=N)N)C(=O)N[C@@H](C)C(=O)NC(C)(C)C(=O)N[C@@H](CC(=O)O)C(=O)N[C@@H](Cc1ccccc1)C(=O)N[C@H](C(=O)N[C@@H](CCC(N)=O)C(=O)N[C@@H](Cc1c[nH]c2ccccc12)C(=O)N[C@@H](CC(C)C)C(=O)N[C@@H](CCSC)C(=O)N[C@@H](CC(N)=O)C(=O)N[C@H](C(N)=O)[C@@H](C)O)C(C)C [compound 59] (H-H[Aib]QGTFTSDK(Palmitoyl)SKYLDERRA[Aib]DFVQWLMNT-NH2)
- EC50 (glucagon receptor): 0.051 nM
- EC50 (GLP-1 receptor): 0.01 nM
- EC50 (GIP receptor): 7.48 nM

SMILES: CCCCCCCCCCCCCCCC(=O)N[C@@H](CCC(=O)N[C@@H](CCC(=O)NCCCC[C@H](NC(=O)[C@H](CC(=O)O)NC(=O)[C@H](CO)NC(=O)[C@@H](NC(=O)[C@H](Cc1ccccc1)NC(=O)[C@@H](NC(=O)CNC(=O)[C@H](CCC(N)=O)NC(=O)C(C)(C)NC(=O)[C@@H](N)Cc1c[nH]cn1)[C@@H](C)O)[C@@H](C)O)C(=O)N[C@@H](CO)C(=O)N[C@@H](CCCCN)C(=O)N[C@@H](Cc1ccc(O)cc1)C(=O)N[C@@H](CC(C)C)C(=O)N[C@@H](CC(=O)O)C(=O)NC(C)(C)C(=O)N[C@@H](CCCNC(=N)N)C(=O)N[C@@H](C)C(=O)N[C@@H](C)C(=O)N[C@@H](CCC(N)=O)C(=O)N[C@@H](CC(=O)O)C(=O)N[C@@H](Cc1ccccc1)C(=O)N[C@H](C(=O)N[C@@H](CCC(N)=O)C(=O)N[C@@H](Cc1c[nH]c2ccccc12)C(=O)N[C@@H](CC(C)C)C(=O)N[C@@H](CC(C)C)C(=O)NC(C)(C)C(=O)NCC(=O)N[C@@H](CCCNC(=N)N)C(=O)NCC(N)=O)C(C)C)C(=O)O)C(=O)O [compound 29] (H-H[Aib]QGTFTSDK([γGlu-γGlu-Palmitoyl])SKYLD[Aib]RAAQDFVQWLL[Aib]GRG-NH2)
- EC50 (glucagon receptor): 0.014 nM
- EC50 (GLP-1 receptor): 0.007 nM
- EC50 (GIP receptor): 1.65 nM

SMILES: CCCCCCCCCCCCCCCC(=O)N[C@@H](CCC(=O)N[C@@H](CCC(=O)NCCCC[C@H](NC(=O)[C@H](CC(=O)O)NC(=O)[C@H](CO)NC(=O)[C@@H](NC(=O)[C@H](Cc1ccccc1)NC(=O)[C@@H](NC(=O)CNC(=O)[C@H](CCC(N)=O)NC(=O)C(C)(C)NC(=O)[C@@H](N)Cc1c[nH]cn1)[C@@H](C)O)[C@@H](C)O)C(=O)N[C@@H](CO)C(=O)N[C@@H](CCCCN)C(=O)N[C@@H](Cc1ccc(O)cc1)C(=O)N[C@@H](CC(C)C)C(=O)N[C@@H](CC(=O)O)C(=O)NC(C)(C)C(=O)N[C@@H](CCCNC(=N)N)C(=O)N[C@@H](C)C(=O)N[C@@H](C)C(=O)N[C@@H](CCC(N)=O)C(=O)N[C@@H](CC(=O)O)C(=O)N[C@@H](Cc1ccccc1)C(=O)N[C@H](C(=O)N[C@@H](CCC(N)=O)C(=O)N[C@@H](Cc1c[nH]c2ccccc12)C(=O)N[C@@H](CC(C)C)C(=O)N[C@@H](CCSC)C(=O)N[C@@H](CC(=O)O)C(=O)N[C@H](C(=O)N[C@@H](CCCCN)C(=O)N[C@H](C)C(=O)O)[C@@H](C)O)C(C)C)C(=O)O)C(=O)O [compound 32] (H-H[Aib]QGTFTSDK([γGlu-γGlu-Palmitoyl])SKYLD[Aib]RAAQDFVQWLMDTK[dA]-OH)
- EC50 (glucagon receptor): 0.007 nM
- EC50 (GLP-1 receptor): 0.008 nM
- EC50 (GIP receptor): 2.08 nM

Reference: patent publication US8729017B2 (priority 2011, dated 2014)
